Measurements taken from PubChem BioAssay (NCI).
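96-well plates; 48 h exposure; 5 concentrations. Endpoints by linear interpolation between flanking doses. Not reached: highest tested concentration assigned. GI50 = concentration required for 50% inhibition of growth. TGI: total growth inhibition.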

test system: ACHN renal; assay: DTP human tumour cell line panel, 48 h

`CN1C(=O)c2cccc3cc([N+](=O)[O-])cc(c23)C1=O` was tested. Which TGI did it give?
The TGI was > 10 µM.

Which TGI does the source give for `CN1c2ccc(Cl)cc2C(=O)NC1c1ccc([N+](=O)[O-])s1` (stereo unspecified) here?
The TGI was 51.7 µM.

How did the GI50 turn out when `c1cc(CNC23CC4CC(CC(C4)C2)C3)cc(C[N+](Cc2cccc(CNC34CC5CC(CC(C5)C3)C4)c2)(Cc2cccc(CNC34CC5CC(CC(C5)C3)C4)c2)Cc2cccc(CNC34CC5CC(CC(C5)C3)C4)c2)c1` (stereo unspecified) was run?
Its GI50 is 3.65 µM.

And the TGI?
The TGI was 8.92 µM.

test system: MOLT-4 leukemia; assay: DTP human tumour cell line panel, 48 h

How did the GI50 turn out when `CN1CCN(CCCOc2ccc3nc(Nc4ccc(Cl)c(C(F)(F)F)c4)ccc3c2)CC1` was run?
Its GI50 is 8.2 µM.

And the TGI?
Its TGI is 24.3 µM.

Which results are given for `CC(C)n1nc(-c2cc3cc(O)ccc3[nH]2)c2c(N)ncnc21`?
GI50: 0.315 µM; TGI: 6.2 µM

What does the source list for `CCCCC(O)(c1ccc(Cl)cc1)C(CN1CCOCC1)c1ccc(Cl)cc1` (stereo unspecified)?
GI50: 10.7 µM; TGI: 30.7 µM

Which results are given for `Cc1cc(C(=O)Nc2ncc(Cc3cccc(C(F)(F)F)c3)s2)c2ccccc2n1`?
GI50: 2.39 µM; TGI: > 100 µM

With `O=C(N/N=C/c1ccc(Cl)cc1)c1ccc(C(F)(F)F)nc1Nc1cccc(C(F)(F)F)c1` as the molecule, how does the GI50 read?
The GI50 was 0.731 µM.

And the TGI?
Its TGI is 5.3 µM.

What does the source list for `COc1cc2ncnc(Nc3ccc(C)c(O)c3)c2cc1OC`?
GI50: > 25 µM; TGI: > 25 µM

Which GI50 does the source give for `O=C1OC(C(O)CO)C(=O)C1=O` (stereo unspecified) here?
Its GI50 is 4120 µM.

And the TGI?
Its TGI is > 10000 µM.

How did the GI50 turn out when `COC(=O)C1=CNC=C(C(=O)OC)C1C1=CC(=O)C(C)=CC1=O` was run?
Its GI50 is 2.16 µM.

And the TGI?
Its TGI is 5.9 µM.

How did the GI50 turn out when `C=C1C(=O)O[C@H]2[C@H]1CC/C(COC(=O)C(=O)c1cn(Cc3ccccc3)c3ccccc13)=C\CC[C@@]1(C)O[C@@H]21` was run?
The GI50 was 2.35 µM.

And the TGI?
Its TGI is 6.83 µM.

With `COc1ccc(/C=C/c2ccnc3ccccc23)c(OC)c1` as the molecule, how does the TGI read?
The TGI was > 10 µM.

Which results are given for `Cc1ccc(C(=O)CN(/C=C/C(=O)C(F)(F)F)c2ccc(S(N)(=O)=O)cc2)cc1`?
GI50: 44 µM; TGI: > 100 µM

`Clc1nc(Cl)c(Cl)c(-c2ccccc2)n1` was tested. Which TGI did it give?
Its TGI is 3.99 µM.

For `COC(C(O)CO)C(O)C(O)C(=O)NNc1ccccc1` (stereo unspecified), which TGI is on record?
Its TGI is > 100 µM.

How did the TGI turn out when `NS(=O)(=O)c1ccc(NC2(C(=O)O)CCCC2)cc1` was run?
The TGI was > 100 µM.

Which TGI does the source give for `O=C(O)C1OC(n2cc(F)c(=O)[nH]c2=O)CC1O` (stereo unspecified) here?
Its TGI is > 56.2 µM.

What does the source list for `N=C1C(c2nc3ccccc3s2)=C(O)CN1c1cc(C(F)(F)F)ccc1Cl`?
GI50: 16.3 µM; TGI: > 100 µM

Which TGI does the source give for `CC(=O)CSCc1ccccn1` here?
The TGI was 61.4 µM.

Which results are given for `COc1ccccc1CNCCCN1C(=O)c2ccc3c4c(ccc(c24)C1=O)C(=O)N(CCCOCCCCOCCCN)C3=O`?
GI50: 0.538 µM; TGI: 2.55 µM

How did the GI50 turn out when `CCOC(=O)[C@@H](N)CCC(=O)N[C@@H](CSCc1ccccc1)C(=O)N[C@@H](C(=O)OCC)c1ccccc1` was run?
Its GI50 is 24.8 µM.

What about the TGI of the same molecule?
The TGI was > 71.4 µM.

What does the source list for `COc1ccc(Nc2c3ccccc3nc3occc23)cc1`?
GI50: 1.55 µM; TGI: > 33 µM

How did the TGI turn out when `CC(=O)/C(C)=N/NC(=O)c1ccccc1O` was run?
Its TGI is > 100 µM.

Which results are given for `CCCCCCCC/C=C/CCCCCCCC(=O)OC[C@H]1O[C@@H](n2ccc(N)nc2=O)C(F)(F)[C@@H]1O`?
GI50: 0.0352 µM; TGI: 5.02 µM

With `NS(=O)(=O)c1ccc(N=Nc2c(O)[nH]c3ccc(-c4cnco4)cc23)cc1` as the molecule, how does the GI50 read?
The GI50 was > 25 µM.

What about the TGI of the same molecule?
The TGI was > 25 µM.

What does the source list for `COc1cc2c3c(n(CCCNC(=O)OCC4c5ccccc5-c5ccccc54)c(=O)c2cc1OC)-c1cc2c(cc1/C3=C\CCNC(=O)OCC1c3ccccc3-c3ccccc31)OCO2`?
GI50: 5.45 µM; TGI: > 50 µM

With `N#C/C(=C1C=C(Br)/C(=N\O)C=C\1Cl)c1cccc2ccccc12` as the molecule, how does the TGI read?
The TGI was 17.6 µM.

For `CN1C(=O)c2cccc3cc([N+](=O)[O-])cc(c23)C1=O`, which TGI is on record?
The TGI was > 10 µM.

For `CN1c2ccc(Cl)cc2C(=O)NC1c1ccc([N+](=O)[O-])s1` (stereo unspecified), which TGI is on record?
Its TGI is 33.7 µM.

For `c1cc(CNC23CC4CC(CC(C4)C2)C3)cc(C[N+](Cc2cccc(CNC34CC5CC(CC(C5)C3)C4)c2)(Cc2cccc(CNC34CC5CC(CC(C5)C3)C4)c2)Cc2cccc(CNC34CC5CC(CC(C5)C3)C4)c2)c1` (stereo unspecified), which GI50 is on record?
Its GI50 is 5.52 µM.

And the TGI?
Its TGI is 17.1 µM.

test system: EKVX NSCLC; assay: DTP human tumour cell line panel, 48 h

Which results are given for `CN1CCN(CCCOc2ccc3nc(Nc4ccc(Cl)c(C(F)(F)F)c4)ccc3c2)CC1`?
GI50: 15 µM; TGI: 29.1 µM

Which results are given for `Cc1cc(C(=O)Nc2ncc(Cc3cccc(C(F)(F)F)c3)s2)c2ccccc2n1`?
GI50: 2.9 µM; TGI: > 100 µM

With `O=C(N/N=C/c1ccc(Cl)cc1)c1ccc(C(F)(F)F)nc1Nc1cccc(C(F)(F)F)c1` as the molecule, how does the GI50 read?
Its GI50 is 1.97 µM.

What about the TGI of the same molecule?
Its TGI is 14.1 µM.
